ChEMBL document CHEMBL1201862, “PubChem BioAssay data set” (2004)
Active and inactive are the calls of the source.

Legend:
Streptococcus = test: Group A Streptococcus viability loss, dose response, counter-screen for streptokinase expression inhibitor project, luminescence, BacTiterGlo (AID 1915); assay type: functional, organism-based;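 further: potency for reduction of bacterial viability or growth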
[1] = Luminescence Cell-Based Dose Response HTS to Identify Inhibitors of 5'UTR Stem-Loop Driven Prion Protein mRNA Translation in H4 Neuroglioblastoma Cells. [Related pubchem assays: 1827 (Project Summary), 1813 (Primary HTS)]; assay type: functional
[2] = molecular target: T1, Apoptotic protease-activating factor 1 (Homo sapiens, UniProt O14727); assay type: functional
T1 sequence (O14727 whole entry): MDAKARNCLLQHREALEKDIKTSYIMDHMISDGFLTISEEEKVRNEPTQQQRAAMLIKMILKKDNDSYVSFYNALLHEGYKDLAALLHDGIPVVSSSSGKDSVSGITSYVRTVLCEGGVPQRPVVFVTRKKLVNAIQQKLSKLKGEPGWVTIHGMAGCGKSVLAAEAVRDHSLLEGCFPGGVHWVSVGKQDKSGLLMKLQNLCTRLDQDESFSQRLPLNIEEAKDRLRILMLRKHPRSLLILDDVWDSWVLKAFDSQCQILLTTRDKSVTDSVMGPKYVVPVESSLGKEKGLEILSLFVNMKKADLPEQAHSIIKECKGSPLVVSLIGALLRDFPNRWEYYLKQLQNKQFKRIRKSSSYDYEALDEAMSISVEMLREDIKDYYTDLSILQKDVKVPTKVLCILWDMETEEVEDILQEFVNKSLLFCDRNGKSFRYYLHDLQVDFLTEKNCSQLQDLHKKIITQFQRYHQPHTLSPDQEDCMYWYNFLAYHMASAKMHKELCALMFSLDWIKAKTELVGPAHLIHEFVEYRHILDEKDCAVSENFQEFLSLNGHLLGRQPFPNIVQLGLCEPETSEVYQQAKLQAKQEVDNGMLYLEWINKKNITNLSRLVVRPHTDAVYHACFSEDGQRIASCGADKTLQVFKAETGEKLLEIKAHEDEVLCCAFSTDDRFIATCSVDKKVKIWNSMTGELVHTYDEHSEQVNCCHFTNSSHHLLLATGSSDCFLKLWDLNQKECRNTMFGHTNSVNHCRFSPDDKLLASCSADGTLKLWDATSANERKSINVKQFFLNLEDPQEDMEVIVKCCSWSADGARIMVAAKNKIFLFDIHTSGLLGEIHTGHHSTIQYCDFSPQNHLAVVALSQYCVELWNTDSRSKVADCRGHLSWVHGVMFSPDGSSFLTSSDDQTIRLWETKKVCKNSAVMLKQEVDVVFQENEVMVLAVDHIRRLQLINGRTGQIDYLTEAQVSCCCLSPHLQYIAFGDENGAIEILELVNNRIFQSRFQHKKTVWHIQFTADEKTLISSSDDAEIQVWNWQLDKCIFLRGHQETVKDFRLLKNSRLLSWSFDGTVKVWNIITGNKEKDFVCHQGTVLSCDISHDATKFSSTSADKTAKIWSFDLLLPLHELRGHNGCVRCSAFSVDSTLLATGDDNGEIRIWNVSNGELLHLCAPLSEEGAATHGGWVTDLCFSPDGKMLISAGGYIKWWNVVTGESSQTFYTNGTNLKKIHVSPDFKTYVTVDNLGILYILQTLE

[3] = molecular target: Dual specificity tyrosine-phosphorylation-regulated kinase 1A (Rattus norvegicus, UniProt Q63470); assay type: biochemical, Homo sapiens
[4] = system: Streptococcus sp. 'group A'; test: growth inhibition of control SK(-) GAS strain, dose response, counter-screen for streptokinase expression inhibitor project, luminescence, kanamycin, BacTiterGlo, confirmation (AID 1900); assay type: functional, organism-based
[5] = molecular target: T2, Histone-lysine N-methyltransferase NSD2 (Homo sapiens, UniProt O96028); assay type: biochemical
T2 sequence (O96028 whole entry): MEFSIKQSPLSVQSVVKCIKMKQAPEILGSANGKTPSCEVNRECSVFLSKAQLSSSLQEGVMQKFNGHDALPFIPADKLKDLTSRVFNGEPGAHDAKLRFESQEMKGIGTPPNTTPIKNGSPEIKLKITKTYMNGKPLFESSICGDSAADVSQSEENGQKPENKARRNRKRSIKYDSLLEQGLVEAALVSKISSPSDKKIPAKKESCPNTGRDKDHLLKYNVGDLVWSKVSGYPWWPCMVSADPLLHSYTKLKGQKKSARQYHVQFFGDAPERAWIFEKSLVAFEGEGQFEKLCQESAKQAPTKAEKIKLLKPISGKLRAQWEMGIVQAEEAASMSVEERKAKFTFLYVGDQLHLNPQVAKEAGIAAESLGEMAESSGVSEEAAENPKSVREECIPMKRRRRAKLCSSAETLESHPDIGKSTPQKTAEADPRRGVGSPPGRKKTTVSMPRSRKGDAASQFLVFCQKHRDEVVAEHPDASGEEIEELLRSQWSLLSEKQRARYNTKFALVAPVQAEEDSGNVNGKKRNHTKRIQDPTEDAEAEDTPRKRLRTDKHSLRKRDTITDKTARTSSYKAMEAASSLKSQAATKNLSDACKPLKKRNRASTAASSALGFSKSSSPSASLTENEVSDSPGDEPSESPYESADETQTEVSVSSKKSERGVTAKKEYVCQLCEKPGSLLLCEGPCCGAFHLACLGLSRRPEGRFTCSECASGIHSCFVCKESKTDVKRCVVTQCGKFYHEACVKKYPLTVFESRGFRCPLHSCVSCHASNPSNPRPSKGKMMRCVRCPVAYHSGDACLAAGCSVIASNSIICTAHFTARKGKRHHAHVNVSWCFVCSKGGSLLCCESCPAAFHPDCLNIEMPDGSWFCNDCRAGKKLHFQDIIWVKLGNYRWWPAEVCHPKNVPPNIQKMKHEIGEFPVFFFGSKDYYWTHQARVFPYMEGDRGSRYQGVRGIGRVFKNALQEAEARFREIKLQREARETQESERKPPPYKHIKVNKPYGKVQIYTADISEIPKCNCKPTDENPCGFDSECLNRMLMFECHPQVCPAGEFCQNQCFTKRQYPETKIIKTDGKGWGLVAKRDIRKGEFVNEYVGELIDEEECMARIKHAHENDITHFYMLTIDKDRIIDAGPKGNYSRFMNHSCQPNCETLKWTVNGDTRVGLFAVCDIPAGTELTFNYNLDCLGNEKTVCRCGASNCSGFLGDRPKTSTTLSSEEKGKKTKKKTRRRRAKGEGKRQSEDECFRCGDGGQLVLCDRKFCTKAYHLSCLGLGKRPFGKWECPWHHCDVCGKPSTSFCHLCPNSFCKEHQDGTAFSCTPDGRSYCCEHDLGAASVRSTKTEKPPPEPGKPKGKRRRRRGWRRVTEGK

[6] = molecular target: Serine/threonine-protein kinase DCLK1 (Homo sapiens, UniProt O15075); assay type: functional;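 further: affinity for DCLK1 (listed as DCAMKL1) measured as one member of a kinome-wide kinase profiling panel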
Serine/threonine-protein kinase DCLK1, sequence (O15075 whole entry): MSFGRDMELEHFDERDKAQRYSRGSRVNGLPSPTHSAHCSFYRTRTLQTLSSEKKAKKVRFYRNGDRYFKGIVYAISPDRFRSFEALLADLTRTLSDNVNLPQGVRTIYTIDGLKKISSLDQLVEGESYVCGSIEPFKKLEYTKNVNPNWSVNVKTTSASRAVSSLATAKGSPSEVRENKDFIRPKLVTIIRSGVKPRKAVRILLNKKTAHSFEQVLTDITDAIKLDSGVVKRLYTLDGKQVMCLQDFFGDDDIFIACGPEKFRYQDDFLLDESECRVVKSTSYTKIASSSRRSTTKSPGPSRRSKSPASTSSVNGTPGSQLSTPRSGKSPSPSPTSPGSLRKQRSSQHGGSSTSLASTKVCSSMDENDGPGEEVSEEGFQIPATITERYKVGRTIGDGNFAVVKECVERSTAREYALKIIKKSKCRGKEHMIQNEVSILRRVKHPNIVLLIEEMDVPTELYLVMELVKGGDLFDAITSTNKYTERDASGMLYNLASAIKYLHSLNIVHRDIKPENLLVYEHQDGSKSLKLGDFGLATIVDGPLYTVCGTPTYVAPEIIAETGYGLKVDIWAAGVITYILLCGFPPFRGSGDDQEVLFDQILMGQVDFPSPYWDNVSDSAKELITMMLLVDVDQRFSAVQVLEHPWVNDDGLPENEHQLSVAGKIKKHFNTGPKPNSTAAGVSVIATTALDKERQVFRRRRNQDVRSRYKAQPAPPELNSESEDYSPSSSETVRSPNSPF

[7] = molecular target: Protein kinase C delta type (Homo sapiens, UniProt Q05655); assay type: functional
Protein kinase C delta type, sequence (Q05655 whole entry): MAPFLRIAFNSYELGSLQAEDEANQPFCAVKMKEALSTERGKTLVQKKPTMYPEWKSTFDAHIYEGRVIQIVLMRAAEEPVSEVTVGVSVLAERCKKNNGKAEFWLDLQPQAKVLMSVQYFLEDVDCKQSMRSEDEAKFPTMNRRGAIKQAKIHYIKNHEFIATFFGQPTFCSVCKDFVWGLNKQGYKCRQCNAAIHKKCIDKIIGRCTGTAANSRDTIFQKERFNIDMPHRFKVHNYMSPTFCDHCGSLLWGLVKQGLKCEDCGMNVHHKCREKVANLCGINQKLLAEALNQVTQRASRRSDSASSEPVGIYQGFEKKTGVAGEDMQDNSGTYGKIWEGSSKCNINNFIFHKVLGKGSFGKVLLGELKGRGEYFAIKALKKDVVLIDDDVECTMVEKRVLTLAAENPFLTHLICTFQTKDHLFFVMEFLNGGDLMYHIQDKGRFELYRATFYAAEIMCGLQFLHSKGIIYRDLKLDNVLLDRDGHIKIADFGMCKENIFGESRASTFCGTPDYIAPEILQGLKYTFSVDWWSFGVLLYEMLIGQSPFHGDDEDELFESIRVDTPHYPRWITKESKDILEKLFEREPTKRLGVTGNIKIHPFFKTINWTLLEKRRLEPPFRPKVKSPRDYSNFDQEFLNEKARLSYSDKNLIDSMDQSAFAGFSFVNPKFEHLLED

[8] = molecular target: Tyrosine-protein kinase Blk (Homo sapiens, UniProt P51451); assay type: functional;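 further: obtained as one member of a kinome-wide kinase assay panel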
Tyrosine-protein kinase Blk, sequence (P51451 whole entry): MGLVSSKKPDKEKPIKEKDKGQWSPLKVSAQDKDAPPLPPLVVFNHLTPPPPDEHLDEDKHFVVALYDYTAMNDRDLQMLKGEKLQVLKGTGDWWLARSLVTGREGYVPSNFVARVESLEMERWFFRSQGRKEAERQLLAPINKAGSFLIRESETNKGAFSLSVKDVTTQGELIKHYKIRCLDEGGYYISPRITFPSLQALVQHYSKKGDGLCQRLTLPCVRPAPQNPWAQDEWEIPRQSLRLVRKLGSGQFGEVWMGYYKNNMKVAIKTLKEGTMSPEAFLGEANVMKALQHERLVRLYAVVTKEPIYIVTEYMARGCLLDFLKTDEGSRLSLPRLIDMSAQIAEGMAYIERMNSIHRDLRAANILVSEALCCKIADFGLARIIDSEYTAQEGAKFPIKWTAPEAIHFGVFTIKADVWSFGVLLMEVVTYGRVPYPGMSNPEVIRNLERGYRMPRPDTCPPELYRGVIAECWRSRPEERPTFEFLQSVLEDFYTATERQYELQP

Structure (SMILES)	EC50 (Streptococcus)	EC50 [1]	IC50 [2]	AC50 [3]	EC50 [4]	AC50 [5]	Ki [6]	Ki [7]	Ki [8]
CC[C@@H](C)[C@H](CNC)NC[C@@H](Cc1cccc2ccccc12)NCCc1cccc(C(F)(F)F)c1	7.12 µM (active)	> 120 µM (not active)	44.1 µM (active)	79 µM (active)	4.8 µM (active)				
Cc1ccc(S(=O)(=O)/N=C2\C=C(Nc3cccc(C(=O)O)c3)C(=O)c3ccccc32)cc1	14.3 µM (active)		7.32 µM (active)	2.57 µM (active)	4.62 µM (active)	0.422 µM (active)			
Cc1ccc(C(=O)NC2(O)C(=O)c3ccccc3C2=O)cc1C			5.13 µM (active)			6.83 µM (active)			
CC(C)(CO)CNc1nccc(-c2c(-c3ccc(F)cc3)nc3c(CC4CC4)nccn23)n1							> 10 µM (inactive)	> 7.94 µM (inactive)	> 1.58 µM (inactive)
